pIC50: −log10 of the molar value. Like-named read-outs stand apart in the source and are kept apart here.
Target: T1, human full-length MKNK1 (Homo sapiens, UniProt Q9BUB5, T385D)
T1 construct: GST (N); purchased Carna Biosciences 02-145; host or cells: insect cells (baculovirus expression system)
Assay: MKNK1 kinase high ATP assay (TR-FRET)
Type: biochemical
Procedure: MKNK1-inhibitory activity at high ATP of compounds of the present invention after their preincubation with MKNK1 was quantified employing the TR-FRET-based MKNK1 high ATP assay as described in the following paragraphs.
As substrate for the kinase reaction the biotinylated peptide biotin-Ahx-[…] (C-terminus in amide form) was used, which can be purchased e.g. from the company Biosyntan (Berlin-Buch, Germany).
For the assay 50 nL of a 100 fold concentrated solution of the test compound in DMSO was pipetted into a black low volume 384 well microtiter plate (Greiner Bio-One, Frickenhausen, Germany), 2 μL of a solution of MKNK1 in aqueous assay buffer [50 mM HEPES pH 7.5, 5 mM MgCl2, 1.0 mM dithiothreitol, 0.005% (v/v) Nonidet-P40 (Sigma)] was added and the mixture was incubated for 15 min at 22° C. to allow pre-binding of the test compounds to the enzyme before the start of the kinase reaction. Then the kinase reaction was started by the addition of 3 μL of a solution of adenosine-tri-phosphate (ATP, 3.3 mM=>final conc. in the 5 μL assay volume is 2 mM) and substrate (0.1 μM=>final conc. in the 5 μL assay volume is 0.06 μM) in assay buffer and the resulting mixture was incubated for a reaction time of 30 min at 22° C. The concentration of MKNK1 was adjusted depending of the activity of the enzyme lot and was chosen appropriate to have the assay in the linear range, typical concentrations were in the range of 0.003 μg/mL. The reaction was stopped by the addition of 5 μL of a solution of TR-FRET detection reagents (5 nM streptavidine-XL665 [Cisbio Bioassays, Codolet, France] and 1 nM anti-ribosomal protein S6 (pSer236)-antibody from Invitrogen [#44921G] and 1 nM LANCE EU-W1024 Labeled ProteinG [Perkin-Elmer, product no. AD0071]) in an aqueous EDTA-solution (100 mM EDTA, 0.1% (w/v) bovine serum albumin in 50 mM HEPES pH 7.5).
The resulting mixture was incubated for 1 h at 22° C. to allow the formation of complex between the phosphorylated biotinylated peptide and the detection reagents. Subsequently the amount of phosphorylated substrate was evaluated by measurement of the resonance energy transfer from the Eu-chelate to the streptavidine-XL. Therefore, the fluorescence emissions at 620 nm and 665 nm after excitation at 350 nm were measured in a TR-FRET reader, e.g. a Rubystar (BMG Labtechnologies, Offenburg, Germany) or a Viewlux (Perkin-Elmer). The ratio of the emissions at 665 nm and at 622 nm was taken as the measure for the amount of phosphorylated substrate.

[1] = 2 mM ATP, after preincubation with MKNK1, read-out: MKNK1 IC50 (MKNK1 high ATP)

T1 sequence (Q9BUB5 1-424 isoform Q9BUB5-2 T344D): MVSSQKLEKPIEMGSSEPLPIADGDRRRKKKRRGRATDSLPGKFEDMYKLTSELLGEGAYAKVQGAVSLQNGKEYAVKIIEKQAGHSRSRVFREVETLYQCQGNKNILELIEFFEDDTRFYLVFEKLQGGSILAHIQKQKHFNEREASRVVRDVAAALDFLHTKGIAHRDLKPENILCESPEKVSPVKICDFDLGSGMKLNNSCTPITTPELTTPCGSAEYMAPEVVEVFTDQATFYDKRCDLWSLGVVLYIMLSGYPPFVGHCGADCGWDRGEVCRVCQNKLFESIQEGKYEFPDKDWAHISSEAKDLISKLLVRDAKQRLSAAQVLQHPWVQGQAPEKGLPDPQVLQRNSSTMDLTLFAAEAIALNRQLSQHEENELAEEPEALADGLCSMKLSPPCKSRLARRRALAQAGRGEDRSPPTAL

SMILES	pIC50 [1]	pIC50
CNC(=O)C1CCc2c(sc3ncnc(Nc4ccc5[nH]ncc5c4)c23)C1 (stereo not shown) [Example 11, 4-(1H-indazol-5-ylamino)-N-methyl-5,6,7,8-tetrahydro[1]benzothieno[2,3-d]pyrimidine-7-carboxamide]	8.00	
CCOC(=O)N1CCN(C(=O)C2CCc3c(sc4ncnc(Nc5ccc6[nH]ncc6c5)c34)C2)CC1 (racemic) [Example 103, (RS)-ethyl4-{[4-(1H-indazol-5-ylamino)-5,6,7,8-tetrahydro[1]benzothieno[2,3-d]pyrimidin-7-yl]carbonyl}piperazine-1-carboxylate]	7.79	
COc1cc2[nH]ncc2cc1Nc1ncnc2sc3c(c12)CCC(C(=O)N1CC(O)C1)C3 (racemic) [Example 272, (RS)-(3-Hydroxyazetidin-1-yl){4-[(6-methoxy-1H-indazol-5-yl)amino]-5,6,7,8-tetrahydro[1]benzothieno[2,3-d]pyrimidin-7-yl}methanone]	9.22	
CC(=O)N[C@@H]1CCN(C(=O)C2CCc3c(sc4ncnc(Nc5ccc6[nH]ncc6c5)c34)C2)C1 (mixture of isomers) [Example 124, (RS)-N-(1-{[4-(1H-indazol-5-ylamino)-5,6,7,8-tetrahydro[1]benzothieno[2,3-d]pyrimidin-7-yl]carbonyl}pyrrolidin-3-yl)acetamide]	8.10	
O=C(C1CCc2c(sc3ncnc(Nc4ccc5[nH]ncc5c4)c23)C1)N1CCOCC1 (stereo not shown) [Example 47, [4-(1H-Indazol-5-ylamino)-5,6,7,8-tetrahydro[1]benzothieno [2,3-d]pyrimidin-7-yl](morpholin-4-yl)methanone]	7.96	
O=C(C1CCc2c(sc3ncnc(Nc4ccc5[nH]ncc5c4)c23)C1)N1CCN(Cc2ccccn2)CC1 (racemic) [Example 154, (RS)-[4-(1H-indazol-5-ylamino)-5,6,7,8-tetrahydro[1]benzothieno[2,3-d]pyrimidin-7-yl][4-(pyridin-2-ylmethyl)piperazin-1-yl]methanone]	7.54	
CC(C)OC(=O)C1CCc2c(sc3ncnc(Nc4ccc5[nH]ncc5c4)c23)C1 (racemic) [Example 74, (RS)-Propan-2-yl 4-(1H-indazol-5-ylamino)-5,6,7,8-tetrahydro[1]benzothieno[2,3-d]pyrimidine-7-carboxylate]	7.56	
O=C(Nc1cccnc1)C1CCc2c(sc3ncnc(Nc4ccc5[nH]ncc5c4)c23)C1 (racemic) [Example 100, (RS)-4-(1H-indazol-5-ylamino)-N-(pyridin-3-yl)-5,6,7,8-tetrahydro[1]benzothieno[2,3-d]pyrimidine-7-carboxamide]	8.12	
CC(O)CN(C)C(=O)C1CCc2c(sc3ncnc(Nc4ccc5[nH]ncc5c4)c23)C1 (racemic) [Example 122, (RS)-N-(2-hydroxypropyl)-4-(1H-indazol-5-ylamino)-N-methyl-5,6,7,8-tetrahydro[1]benzothieno[2,3-d]pyrimidine-7-carboxamide]	7.95	
CCOc1cc2[nH]ncc2cc1Nc1ncnc2sc3c(c12)CCC(C(=O)N1CCC(=O)CC1)C3 (racemic) [Example 211, (RS)-1-({4-[(6-Ethoxy-1H-indazol-5-yl)amino]-5,6,7,8-tetrahydro[1]benzothieno[2,3-d]pyrimidin-7-yl}carbonyl)piperidin-4-one]		9.30
COc1cc2[nH]ncc2cc1Nc1ncnc2sc3c(c12)CCC(C(=O)N1CC2(CCS2(=O)=O)C1)C3 (racemic) [Example 264, (RS)-(1,1-Dioxido-1-thia-6-azaspiro[3.3]hept-6-yl){4-[(6-methoxy-1H-indazol-5-yl)amino]-5,6,7,8-tetrahydro[1]benzothieno[2,3-d]pyrimidin-7-yl}methanone]	8.66	
CCN(Cc1ccncc1)C(=O)C1CCc2c(sc3ncnc(Nc4ccc5[nH]ncc5c4)c23)C1 (racemic) [Example 109, (RS)-N-ethyl-4-(1H-indazol-5-ylamino)-N-(pyridin-4-ylmethyl)-5,6,7,8-tetrahydro[1]benzothieno[2,3-d]pyrimidine-7-carboxamide]	8.10	
CC(C)Oc1cc2[nH]ncc2cc1Nc1ncnc2sc3c(c12)CCC(C(=O)N1CC(C#N)C1)C3 (racemic) [Example 208, (RS)-1-[(4-{[6-(Propan-2-yloxy)-1H-indazol-5-yl]amino}-5,6,7,8-tetrahydro[1]benzothieno[2,3-d]pyrimidin-7-yl)carbonyl]azetidine-3-carbonitrile]	9.70	
COc1cc2[nH]ncc2cc1Nc1ncnc2sc3c(c12)CCC(C(=O)O)C3 (stereo not shown) [Example 57, 4-[(6-Methoxy-1H-indazol-5-yl)amino]-5,6,7,8-tetrahydro[1]benzothieno[2,3-d]pyrimidine-7-carboxylic acid]	8.15	
COCCNC(=O)C1CCc2c(sc3ncnc(Nc4ccc5[nH]ncc5c4)c23)C1 (stereo not shown) [Example 50, 4-(1H-Indazol-5-ylamino)-N-(2-methoxyethyl)-5,6,7,8-tetrahydro[1] benzothieno [2,3-d]pyrimidine-7-carboxamide]	7.85	
O=C(C1CCc2c(sc3ncnc(Nc4ccc5[nH]ncc5c4)c23)C1)N1CCN(c2ccccn2)CC1 (racemic) [Example 87, (RS)-[4-(1H-indazol-5-ylamino)-5,6,7,8-tetrahydro[1]benzothieno[2,3-d]pyrimidin-7-yl][4-(pyridin-2-yl)piperazin-1-yl]methanone]	7.69	
O=C(Nc1ccnnc1)C1CCc2c(sc3ncnc(Nc4ccc5[nH]ncc5c4)c23)C1 (racemic) [Example 128, (RS)-4-(1H-indazol-5-ylamino)-N-(pyridazin-4-yl)-5,6,7,8-tetrahydro[1]benzothieno[2,3-d]pyrimidine-7-carboxamide]	7.82	
CN(Cc1cnn(C)c1)C(=O)C1CCc2c(sc3ncnc(Nc4ccc5[nH]ncc5c4)c23)C1 (racemic) [Example 157, (RS)-4-(1H-indazol-5-ylamino)-N-methyl-N-[(1-methyl-1H-pyrazol-4-yl)methyl]-5,6,7,8-tetrahydro[1]benzothieno[2,3-d]pyrimidine-7-carboxamide]	7.42	
CCOC(=O)C1CCc2c(sc3ncnc(Nc4ccc5[nH]ncc5c4C)c23)C1 (racemic) [Example 60, (RS)-Ethyl 4-[(4-methyl-1H-indazol-5-yl)amino]-5,6,7,8-tetrahydro[1]benzothieno[2,3-d]pyrimidine-7-carboxylate]	5.66	
COCCN(CCO)C(=O)C1CCc2c(sc3ncnc(Nc4cc5cn[nH]c5cc4OC)c23)C1 (racemic) [Example 207, (RS)—N-(2-Hydroxyethyl)-N-(2-methoxyethyl)-4-[(6-methoxy-1H-indazol-5-yl)amino]-5,6,7,8-tetrahydro[1]benzothieno[2,3-d]pyrimidine-7-carboxamide]	9.30	
CCOc1cc2[nH]ncc2cc1Nc1ncnc2sc3c(c12)CCC(C(=O)N(C)C1CC1)C3 (racemic) [Example 235, (RS)—N—Cyclopropyl-4-[(6-ethoxy-1H-indazol-5-yl)amino]-N-methyl-5,6,7,8-tetrahydro[1]benzothieno[2,3-d]pyrimidine-7-carboxamide]	9.30	
O=C(C1CCc2c(sc3ncnc(Nc4ccc5[nH]ncc5c4)c23)C1)N1CCC(O)CC1 (racemic) [Example 85, (RS)-(4-hydroxypiperidin-1-yl)[4-(1H-indazol-5-ylamino)-5,6,7,8-tetrahydro[1]benzothieno[2,3-d]pyrimidin-7-yl]methanone]	7.93	
CC(C)NC(=O)C1CCc2c(sc3ncnc(Nc4ccc5[nH]ncc5c4)c23)C1 (stereo not shown) [Example 6, 4-(1H-Indazol-5-ylamino)-N-isopropyl-5,6,7,8-tetrahydro[1]benzothieno[2,3-d]pyrimidine-7-carboxamide]	8.40	
O=C(C1CCc2c(sc3ncnc(Nc4ccc5[nH]ncc5c4)c23)C1)N1CCCC(O)C1 (racemic) [Example 108, (RS)-(3-hydroxypiperidin-1-yl)[4-(1H-indazol-5-ylamino)-5,6,7,8-tetrahydro[1]benzothieno[2,3-d]pyrimidin-7-yl]methanone]	7.92	
N#Cc1cccc(NC(=O)C2CCc3c(sc4ncnc(Nc5ccc6[nH]ncc6c5)c34)C2)c1 (racemic) [Example 79, (RS)—N-(3-Cyanophenyl)-4-(1H-indazol-5-ylamino)-5,6,7,8-tetrahydro[1]benzothieno[2,3-d]pyrimidine-7-carboxamide]	7.98	

From patent US9540392B2, “Thienopyrimidines” (BAYER PHARMA AKTIENGESELLSCHAFT, priority 2012, dated 2017)
